# Laboratory results reported in ChEMBL document CHEMBL1201862, “PubChem BioAssay data set” (2004).
#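 96-well plates; 48 h exposure; 5 concentrations. Endpoints by linear interpolation between flanking doses. Not reached: highest tested concentration assigned. GI50 marks 50% less growth.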 The source made the active and inactive calls. Cut-off read from the data, not from the text of the source: active = GI50 up to about 1.1 µM and inactive = higher.
# Tests used:
# Test in all cases: NCI tumour cell line growth inhibition, 48 h
# [1] = system: HCC 2998
# [2] = system: M19-MEL
# [3] = system: HL-60
# [4] = system: SW-620
# [5] = system: RXF 631
# [6] = system: HOP-18
# [7] = system: HCT-116
# [8] = system: Malme-3M
# [9] = system: RPMI-8226
# [10] = system: M14
# [11] = system: U-251
# [12] = system: OVCAR-4
# [13] = system: LOX IMVI
# [14] = system: DLD-1
# [15] = system: SK-MEL-28
# [16] = system: HT-29
# [17] = system: HOP-62
# [18] = system: SK-MEL-5
# [19] = system: SNB-19
# [20] = system: A549
# [21] = system: SR
# [22] = system: EKVX
# [23] = system: SN12C
# [24] = system: NCI-H460
# [25] = system: MOLT-4
# [26] = system: IGROV-1
# [27] = system: SF-268
# [28] = system: OVCAR-3
# [29] = system: A498
# [30] = system: OVCAR-5
# [31] = system: XF498
# [32] = system: SF-295
# [33] = system: SF-539
# [34] = system: CCRF-CEM
# [35] = system: KM12
# [36] = system: DMS-114
# [37] = system: SNB-75
# [38] = system: NCI-H226
# [39] = system: LXFL 529
# [40] = system: CAKI-1
# [41] = system: ACHN
# [42] = system: UACC-257
# [43] = system: K562
# [44] = system: UO-31
# [45] = system: RXF 393
# [46] = system: COLO 205
# [47] = system: HCT-15
# [48] = system: TK-10
# [49] = system: OVCAR-8
# [50] = system: SK-OV-3
# [51] = system: UACC-62
# [52] = system: HOP-92
# [53] = system: KM-20L2
# [54] = system: 786-0
# [55] = system: NCI-H23
# [56] = system: DMS-273
# [57] = system: SNB-78
# [58] = system: NCI-H522
smiles,measurement,setting,value
CCCC(=O)c1c(NOC2OCC(OC(C)=O)C(OC(C)=O)C2OC(C)=O)nc(OC)n(C)c1=O (stereo unspecified),GI50,[1],> 100 µM (inactive)
same,GI50,[2],> 100 µM (inactive)
same,GI50,[3],0.498 µM (active)
same,GI50,[4],> 100 µM (inactive)
same,GI50,[5],> 100 µM (inactive)
same,GI50,[6],> 100 µM (inactive)
same,GI50,[7],> 100 µM (inactive)
same,GI50,[8],> 100 µM (inactive)
same,GI50,[9],> 100 µM (inactive)
same,GI50,[10],> 100 µM (inactive)
same,GI50,[11],> 100 µM (inactive)
same,GI50,[12],> 100 µM (inactive)
same,GI50,[13],> 100 µM (inactive)
same,GI50,[14],> 100 µM (inactive)
same,GI50,[15],> 100 µM (inactive)
same,GI50,[16],> 100 µM (inactive)
same,GI50,[17],> 100 µM (inactive)
same,GI50,[18],> 100 µM (inactive)
same,GI50,[19],> 100 µM (inactive)
same,GI50,[20],> 100 µM (inactive)
same,GI50,[21],> 100 µM (inactive)
same,GI50,[22],> 100 µM (inactive)
same,GI50,[23],> 100 µM (inactive)
same,GI50,[24],> 100 µM (inactive)
same,GI50,[25],> 100 µM (inactive)
same,GI50,[26],> 100 µM (inactive)
same,GI50,[27],> 100 µM (inactive)
same,GI50,[28],> 100 µM (inactive)
same,GI50,[29],> 100 µM (inactive)
same,GI50,[30],> 100 µM (inactive)
same,GI50,[31],> 100 µM (inactive)
same,GI50,[32],> 100 µM (inactive)
same,GI50,[33],> 100 µM (inactive)
same,GI50,[34],3.25 µM (inactive)
same,GI50,[35],> 100 µM (inactive)
same,GI50,[36],> 100 µM (inactive)
same,GI50,[37],> 100 µM (inactive)
same,GI50,[38],> 100 µM (inactive)
same,GI50,[39],> 100 µM (inactive)
same,GI50,[40],> 100 µM (inactive)
same,GI50,[41],> 100 µM (inactive)
same,GI50,[42],> 100 µM (inactive)
same,GI50,[43],17.4 µM (inactive)
same,GI50,[44],> 100 µM (inactive)
same,GI50,[45],> 100 µM (inactive)
same,GI50,[46],> 100 µM (inactive)
same,GI50,[47],> 100 µM
same,GI50,[48],> 100 µM (inactive)
same,GI50,[49],> 100 µM (inactive)
same,GI50,[50],> 100 µM (inactive)
same,GI50,[51],> 100 µM (inactive)
same,GI50,[52],> 100 µM (inactive)
same,GI50,[53],> 100 µM (inactive)
same,GI50,[54],> 100 µM (inactive)
same,GI50,[55],> 100 µM (inactive)
same,GI50,[56],> 100 µM (inactive)
O=Cc1cc2sc(C=O)cc2s1,GI50,[1],> 100 µM (inactive)
same,GI50,[2],> 100 µM (inactive)
same,GI50,[3],> 100 µM (inactive)
same,GI50,[4],> 100 µM (inactive)
same,GI50,[5],> 100 µM (inactive)
same,GI50,[7],> 100 µM (inactive)
same,GI50,[8],> 100 µM (inactive)
same,GI50,[9],> 100 µM (inactive)
same,GI50,[10],> 100 µM (inactive)
same,GI50,[11],> 100 µM (inactive)
same,GI50,[12],> 100 µM (inactive)
same,GI50,[13],> 100 µM (inactive)
same,GI50,[14],> 100 µM (inactive)
same,GI50,[16],> 100 µM (inactive)
same,GI50,[17],> 100 µM (inactive)
same,GI50,[18],> 100 µM (inactive)
same,GI50,[57],> 100 µM (inactive)
same,GI50,[19],> 100 µM (inactive)
same,GI50,[20],> 100 µM (inactive)
same,GI50,[21],> 100 µM (inactive)
same,GI50,[22],> 100 µM (inactive)
same,GI50,[23],> 100 µM (inactive)
same,GI50,[24],> 100 µM (inactive)
same,GI50,[25],> 100 µM (inactive)
same,GI50,[26],> 100 µM (inactive)
same,GI50,[27],> 100 µM (inactive)
same,GI50,[28],> 100 µM (inactive)
same,GI50,[29],17.7 µM (inactive)
same,GI50,[30],> 100 µM (inactive)
same,GI50,[31],> 100 µM (inactive)
same,GI50,[32],> 100 µM (inactive)
same,GI50,[33],> 100 µM (inactive)
same,GI50,[34],> 100 µM (inactive)
same,GI50,[35],> 100 µM (inactive)
same,GI50,[58],93.3 µM (inactive)
same,GI50,[36],> 100 µM (inactive)
same,GI50,[37],> 100 µM (inactive)
same,GI50,[38],26.1 µM (inactive)
same,GI50,[39],> 100 µM (inactive)
same,GI50,[40],45.3 µM (inactive)
same,GI50,[42],> 100 µM (inactive)
same,GI50,[43],> 100 µM (inactive)
same,GI50,[44],> 100 µM (inactive)
same,GI50,[45],> 100 µM (inactive)
same,GI50,[46],> 100 µM (inactive)
same,GI50,[47],> 100 µM
same,GI50,[48],> 100 µM (inactive)
same,GI50,[49],> 100 µM (inactive)
same,GI50,[50],> 100 µM (inactive)
same,GI50,[51],40.6 µM (inactive)
same,GI50,[52],> 100 µM (inactive)
same,GI50,[53],> 100 µM (inactive)
same,GI50,[54],> 100 µM (inactive)
same,GI50,[55],> 100 µM (inactive)
same,GI50,[56],> 100 µM (inactive)
